Experimental data reported in ChEMBL document CHEMBL1142627, “Ribofuranosyl triazolone: a natural product herbicide with activity on adenylosuccinate synthetase following phosphorylation” (J Nat Prod, 2000).
Activity calls are given as the source filed them. The rule behind the calls is not given here.

Key:
Oryctolagus cuniculus = organism: Oryctolagus cuniculus; test: (§1) Inhibition of rabbit muscle Adenylosuccinate synthase assessed as adenylosuccinate formation
BMS = test: (§2) Inhibition of Zea mays BMS cells Adenylosuccinate synthase assessed as adenylosuccinate formation; type: cell-based
Abutilon theophrasti [1] = test: Phytotoxicity against Abutilon theophrasti assessed as visual injury at 1.0 kg/ha growth rate treated post-emergence by greenhouse test; type: functional
Abutilon theophrasti [2] = test: Phytotoxicity against Abutilon theophrasti assessed as visual injury at 0.5 kg/ha growth rate treated post-emergence by greenhouse test; type: functional
Abutilon theophrasti [3] = test: Phytotoxicity against Abutilon theophrasti assessed as visual injury at 4.0 kg/ha growth rate treated pre-emergence by greenhouse test; type: functional
Abutilon theophrasti [4] = test: Phytotoxicity against Abutilon theophrasti assessed as visual injury at 2.0 kg/ha growth rate treated pre-emergence by greenhouse test; type: functional
Abutilon theophrasti [5] = test: Phytotoxicity against Abutilon theophrasti assessed as visual injury at 1.0 kg/ha growth rate treated pre-emergence by greenhouse test; type: functional
Abutilon theophrasti [6] = test: Phytotoxicity against Abutilon theophrasti assessed as visual injury at 0.5 kg/ha growth rate treated pre-emergence by greenhouse test; type: functional
Amaranthus retroflexus [7] = test: Phytotoxicity against Amaranthus retroflexus assessed as visual injury at 4.0 kg/ha growth rate treated post-emergence by greenhouse test; type: functional
Amaranthus retroflexus [8] = test: Phytotoxicity against Amaranthus retroflexus assessed as visual injury at 2.0 kg/ha growth rate treated post-emergence by greenhouse test; type: functional
Amaranthus retroflexus [9] = test: Phytotoxicity against Amaranthus retroflexus assessed as visual injury at 1.0 kg/ha growth rate treated post-emergence by greenhouse test; type: functional
Amaranthus retroflexus [10] = test: Phytotoxicity against Amaranthus retroflexus assessed as visual injury at 0.5 kg/ha growth rate treated post-emergence by greenhouse test; type: functional
Amaranthus retroflexus [11] = test: Phytotoxicity against Amaranthus retroflexus assessed as visual injury at 4.0 kg/ha growth rate treated pre-emergence by greenhouse test; type: functional
Amaranthus retroflexus [12] = test: Phytotoxicity against Amaranthus retroflexus assessed as visual injury at 2.0 kg/ha growth rate treated pre-emergence by greenhouse test; type: functional
Amaranthus retroflexus [13] = test: Phytotoxicity against Amaranthus retroflexus assessed as visual injury at 1.0 kg/ha growth rate treated pre-emergence by greenhouse test; type: functional
Amaranthus retroflexus [14] = test: Phytotoxicity against Amaranthus retroflexus assessed as visual injury at 0.5 kg/ha growth rate treated pre-emergence by greenhouse test; type: functional
Setaria faberi [15] = test: Phytotoxicity against Setaria faberi assessed as visual injury at 4.0 kg/ha growth rate treated post-emergence by greenhouse test; type: functional
Setaria faberi [16] = test: Phytotoxicity against Setaria faberi assessed as visual injury at 2.0 kg/ha growth rate treated post-emergence by greenhouse test; type: functional
Setaria faberi [17] = test: Phytotoxicity against Setaria faberi assessed as visual injury at 1.0 kg/ha growth rate treated post-emergence by greenhouse test; type: functional
Setaria faberi [18] = test: Phytotoxicity against Setaria faberi assessed as visual injury at 0.5 kg/ha growth rate treated post-emergence by greenhouse test; type: functional
Setaria faberi [19] = test: Phytotoxicity against Setaria faberi assessed as visual injury at 4.0 kg/ha growth rate treated pre-emergence by greenhouse test; type: functional
Setaria faberi [20] = test: Phytotoxicity against Setaria faberi assessed as visual injury at 2.0 kg/ha growth rate treated pre-emergence by greenhouse test; type: functional
Setaria faberi [21] = test: Phytotoxicity against Setaria faberi assessed as visual injury at 1.0 kg/ha growth rate treated pre-emergence by greenhouse test; type: functional
Setaria faberi [22] = test: Phytotoxicity against Setaria faberi assessed as visual injury at 0.5 kg/ha growth rate treated pre-emergence by greenhouse test; type: functional
Arabidopsis thaliana [23] = test: Metabolite reversal in Arabidopsis thaliana assessed as root growth inhibition in presence of adenine and guanine; type: functional, organism-based
Arabidopsis thaliana [24] = test: Metabolite reversal in Arabidopsis thaliana assessed as root growth inhibition in presence of adenine; type: functional, organism-based
Arabidopsis thaliana [25] = test: Metabolite reversal in Arabidopsis thaliana assessed as root growth inhibition in presence of guanine; type: functional, organism-based
Alopecurus myosuroides [26] = test: Phytotoxicity against Alopecurus myosuroides assessed as visual injury at 4.0 kg/ha growth rate treated post-emergence by greenhouse test; type: functional
Alopecurus myosuroides [27] = test: Phytotoxicity against Alopecurus myosuroides assessed as visual injury at 2.0 kg/ha growth rate treated post-emergence by greenhouse test; type: functional
Alopecurus myosuroides [28] = test: Phytotoxicity against Alopecurus myosuroides assessed as visual injury at 1.0 kg/ha growth rate treated post-emergence by greenhouse test; type: functional
Alopecurus myosuroides [29] = test: Phytotoxicity against Alopecurus myosuroides assessed as visual injury at 0.5 kg/ha growth rate treated post-emergence by greenhouse test; type: functional
Alopecurus myosuroides [30] = test: Phytotoxicity against Alopecurus myosuroides assessed as visual injury at 4.0 kg/ha growth rate treated pre-emergence by greenhouse test; type: functional
Alopecurus myosuroides [31] = test: Phytotoxicity against Alopecurus myosuroides assessed as visual injury at 2.0 kg/ha growth rate treated pre-emergence by greenhouse test; type: functional
Alopecurus myosuroides [32] = test: Phytotoxicity against Alopecurus myosuroides assessed as visual injury at 1.0 kg/ha growth rate treated pre-emergence by greenhouse test; type: functional
Alopecurus myosuroides [33] = test: Phytotoxicity against Alopecurus myosuroides assessed as visual injury at 0.5 kg/ha growth rate treated pre-emergence by greenhouse test; type: functional
Arabidopsis thaliana [34] = test: Inhibition of Arabidopsis thaliana root growth; type: functional, organism-based
Helianthus annuus [35] = test: Phytotoxicity against Helianthus annuus assessed as visual injury at 4.0 kg/ha growth rate treated post-emergence by greenhouse test; type: functional
Helianthus annuus [36] = test: Phytotoxicity against Helianthus annuus assessed as visual injury at 2.0 kg/ha growth rate treated post-emergence by greenhouse test; type: functional
Helianthus annuus [37] = test: Phytotoxicity against Helianthus annuus assessed as visual injury at 1.0 kg/ha growth rate treated post-emergence by greenhouse test; type: functional
Helianthus annuus [38] = test: Phytotoxicity against Helianthus annuus assessed as visual injury at 0.5 kg/ha growth rate treated post-emergence by greenhouse test; type: functional
Helianthus annuus [39] = test: Phytotoxicity against Helianthus annuus assessed as visual injury at 4.0 kg/ha growth rate treated pre-emergence by greenhouse test; type: functional
Helianthus annuus [40] = test: Phytotoxicity against Helianthus annuus assessed as visual injury at 2.0 kg/ha growth rate treated pre-emergence by greenhouse test; type: functional
Helianthus annuus [41] = test: Phytotoxicity against Helianthus annuus assessed as visual injury at 1.0 kg/ha growth rate treated pre-emergence by greenhouse test; type: functional
Helianthus annuus [42] = test: Phytotoxicity against Helianthus annuus assessed as visual injury at 0.5 kg/ha growth rate treated pre-emergence by greenhouse test; type: functional
Echinochloa crus-galli [43] = test: Phytotoxicity against Echinochloa crusgalli assessed as visual injury at 4.0 kg/ha growth rate treated post-emergence by greenhouse test; type: functional
Echinochloa crus-galli [44] = test: Phytotoxicity against Echinochloa crusgalli assessed as visual injury at 2.0 kg/ha growth rate treated post-emergence by greenhouse test; type: functional
Echinochloa crus-galli [45] = test: Phytotoxicity against Echinochloa crusgalli assessed as visual injury at 1.0 kg/ha growth rate treated post-emergence by greenhouse test; type: functional
Echinochloa crus-galli [46] = test: Phytotoxicity against Echinochloa crusgalli assessed as visual injury at 0.5 kg/ha growth rate treated post-emergence by greenhouse test; type: functional
Echinochloa crus-galli [47] = test: Phytotoxicity against Echinochloa crusgalli assessed as visual injury at 4.0 kg/ha growth rate treated pre-emergence by greenhouse test; type: functional
Echinochloa crus-galli [48] = test: Phytotoxicity against Echinochloa crusgalli assessed as visual injury at 2.0 kg/ha growth rate treated pre-emergence by greenhouse test; type: functional
Echinochloa crus-galli [49] = test: Phytotoxicity against Echinochloa crusgalli assessed as visual injury at 1.0 kg/ha growth rate treated pre-emergence by greenhouse test; type: functional
Echinochloa crus-galli [50] = test: Phytotoxicity against Echinochloa crusgalli assessed as visual injury at 0.5 kg/ha growth rate treated pre-emergence by greenhouse test; type: functional
Ipomoea hederacea [51] = test: Phytotoxicity against Ipomoea hederacea assessed as visual injury at 4.0 kg/ha growth rate treated post-emergence by greenhouse test; type: functional
Ipomoea hederacea [52] = test: Phytotoxicity against Ipomoea hederacea assessed as visual injury at 2.0 kg/ha growth rate treated post-emergence by greenhouse test; type: functional
Ipomoea hederacea [53] = test: Phytotoxicity against Ipomoea hederacea assessed as visual injury at 1.0 kg/ha growth rate treated post-emergence by greenhouse test; type: functional
Ipomoea hederacea [54] = test: Phytotoxicity against Ipomoea hederacea assessed as visual injury at 0.5 kg/ha growth rate treated post-emergence by greenhouse test; type: functional
Ipomoea hederacea [55] = test: Phytotoxicity against Ipomoea hederacea assessed as visual injury at 4.0 kg/ha growth rate treated pre-emergence by greenhouse test; type: functional
Ipomoea hederacea [56] = test: Phytotoxicity against Ipomoea hederacea assessed as visual injury at 2.0 kg/ha growth rate treated pre-emergence by greenhouse test; type: functional
Ipomoea hederacea [57] = test: Phytotoxicity against Ipomoea hederacea assessed as visual injury at 1.0 kg/ha growth rate treated pre-emergence by greenhouse test; type: functional
Ipomoea hederacea [58] = test: Phytotoxicity against Ipomoea hederacea assessed as visual injury at 0.5 kg/ha growth rate treated pre-emergence by greenhouse test; type: functional
Avena fatua [59] = test: Phytotoxicity against Avena fatua assessed as visual injury at 4.0 kg/ha growth rate treated post-emergence by greenhouse test; type: functional
Avena fatua [60] = test: Phytotoxicity against Avena fatua assessed as visual injury at 2.0 kg/ha growth rate treated post-emergence by greenhouse test; type: functional
Avena fatua [61] = test: Phytotoxicity against Avena fatua assessed as visual injury at 1.0 kg/ha growth rate treated post-emergence by greenhouse test; type: functional
Avena fatua [62] = test: Phytotoxicity against Avena fatua assessed as visual injury at 0.5 kg/ha growth rate treated post-emergence by greenhouse test; type: functional
Avena fatua [63] = test: Phytotoxicity against Avena fatua assessed as visual injury at 4.0 kg/ha growth rate treated pre-emergence by greenhouse test; type: functional
Avena fatua [64] = test: Phytotoxicity against Avena fatua assessed as visual injury at 2.0 kg/ha growth rate treated pre-emergence by greenhouse test; type: functional
Avena fatua [65] = test: Phytotoxicity against Avena fatua assessed as visual injury at 1.0 kg/ha growth rate treated pre-emergence by greenhouse test; type: functional
Avena fatua [66] = test: Phytotoxicity against Avena fatua assessed as visual injury at 0.5 kg/ha growth rate treated pre-emergence by greenhouse test; type: functional
Abutilon theophrasti [67] = test: Phytotoxicity against Abutilon theophrasti assessed as visual injury at 4.0 kg/ha growth rate treated post-emergence by greenhouse test; type: functional
Abutilon theophrasti [68] = test: Phytotoxicity against Abutilon theophrasti assessed as visual injury at 2.0 kg/ha growth rate treated post-emergence by greenhouse test; type: functional
[69] = as §1; set-up: species or system Oryctolagus cuniculus; settings: read-out: I50
[70] = as §2; type: cell-based; settings: read-out: I50
[71] = Arabidopsis thaliana, read-out: I50

O=C1NC(=O)[C@@]2(N1)O[C@H](COP(=O)(O)O)[C@@H](O)[C@H]2O
Activity (Oryctolagus cuniculus; TDE = time-dependent effect): tde
Activity (BMS; TDE = time-dependent effect): tde

O=c1[nH]ncn1[C@@H]1O[C@H](CO)[C@@H](O)[C@H]1O
Activity (Abutilon theophrasti [1]): 70%
Activity (Abutilon theophrasti [2]): 85%
Activity (Abutilon theophrasti [3]): 65%
Activity (Abutilon theophrasti [4]): 30%
Activity (Abutilon theophrasti [5]): 30%
Activity (Abutilon theophrasti [6]): 15%
Activity (Amaranthus retroflexus [7]): 70%
Activity (Amaranthus retroflexus [8]): 50%
Activity (Amaranthus retroflexus [9]): 50%
Activity (Amaranthus retroflexus [10]): 0%
Activity (Amaranthus retroflexus [11]): 0%
Activity (Amaranthus retroflexus [12]): 0%
Activity (Amaranthus retroflexus [13]): 0%
Activity (Amaranthus retroflexus [14]): 0%
Activity (Setaria faberi [15]): 85%
Activity (Setaria faberi [16]): 60%
Activity (Setaria faberi [17]): 70%
Activity (Setaria faberi [18]): 50%
Activity (Setaria faberi [19]): 0%
Activity (Setaria faberi [20]): 0%
Activity (Setaria faberi [21]): 0%
Activity (Setaria faberi [22]): 0%
I50 (Arabidopsis thaliana [23]): 2.5 ppm
IC50 (Arabidopsis thaliana [23]; [71]): 11.5 µM
I50 (Arabidopsis thaliana [24]): 1.8 ppm
IC50 (Arabidopsis thaliana [24]; [71]): 8.3 µM
Activity (Arabidopsis thaliana [25]): inactive
Activity (Oryctolagus cuniculus): inactive
Activity (BMS): inactive
Activity (Alopecurus myosuroides [26]): 80%
Activity (Alopecurus myosuroides [27]): 70%
Activity (Alopecurus myosuroides [28]): 70%
Activity (Alopecurus myosuroides [29]): 40%
Activity (Alopecurus myosuroides [30]): 40%
Activity (Alopecurus myosuroides [31]): 35%
Activity (Alopecurus myosuroides [32]): 30%
Activity (Alopecurus myosuroides [33]): 0%
I50 (Arabidopsis thaliana [34]): 0.04 ppm
IC50 (Arabidopsis thaliana [34]; [71]): 200 nM
Activity (Helianthus annuus [35]): 95%
Activity (Helianthus annuus [36]): 95%
Activity (Helianthus annuus [37]): 100%
Activity (Helianthus annuus [38]): 90%
Activity (Helianthus annuus [39]): 60%
Activity (Helianthus annuus [40]): 20%
Activity (Helianthus annuus [41]): 10%
Activity (Helianthus annuus [42]): 0%
Activity (Echinochloa crus-galli [43]): 90%
Activity (Echinochloa crus-galli [44]): 85%
Activity (Echinochloa crus-galli [45]): 85%
Activity (Echinochloa crus-galli [46]): 70%
Activity (Echinochloa crus-galli [47]): 0%
Activity (Echinochloa crus-galli [48]): 0%
Activity (Echinochloa crus-galli [49]): 0%
Activity (Echinochloa crus-galli [50]): 0%
Activity (Ipomoea hederacea [51]): 90%
Activity (Ipomoea hederacea [52]): 80%
Activity (Ipomoea hederacea [53]): 80%
Activity (Ipomoea hederacea [54]): 75%
Activity (Ipomoea hederacea [55]): 40%
Activity (Ipomoea hederacea [56]): 40%
Activity (Ipomoea hederacea [57]): 25%
Activity (Ipomoea hederacea [58]): 15%
Activity (Avena fatua [59]): 60%
Activity (Avena fatua [60]): 70%
Activity (Avena fatua [61]): 60%
Activity (Avena fatua [62]): 50%
Activity (Avena fatua [63]): 0%
Activity (Avena fatua [64]): 0%
Activity (Avena fatua [65]): 0%
Activity (Avena fatua [66]): 0%
Activity (Abutilon theophrasti [67]): 80%
Activity (Abutilon theophrasti [68]): 80%

O=c1[nH]ncn1[C@@H]1O[C@H](COP(=O)(O)O)[C@@H](O)[C@H]1O [PHOSPHORIBOFURANOSYL TRIAZOLONE]
IC50 [69]: 180 nM
Activity (Oryctolagus cuniculus; TDE = time-dependent effect): tde
IC50 [70]: 980 nM
